Tests used:
Type in all cases: in vivo
mango fruits [1] = experiment: Brix values of mango fruits and juice
Protocol: (§1) Mango—unripe Mango fruits were harvested and dipped in 4-8 mM phenylalanine for a period of 30 seconds. Fruits were stored at 22° C. until ripening (Days 11-15), wherein sensory analysis by a panel of 20 tasters was performed. Further, Brix, and % acidity (calibrated according to citric acid), and firmness (by Newton units) values were determined in 5 different fruits.

[2] = test system: White (Sifra) potato tubers; experiment: Lignin production at the cut (Calcofluor white fluorescence); settings: 8 mM dip, one-week post-treatment, vs control
Protocol: White (Sifra) potato tubers were dipped in water or 8 mM Phe for 1 min, and dried. The tubers were stored at 20° C. for 2 days. Each tuber was cut (2 cm length, 2 cm deep, 2 mm wide). One week later the curing of the cut was documented.

mango fruits [3] = experiment: Sensory analysis by a panel of 20 tasters, mango fruits and juice; settings: for quality of juice extracted from mango fruits: preharvest application, 2020
Protocol: as §1

apple fruits (Jonathan) [4] = experiment: Sensory analysis and Brix of apple fruits and juice after preharvest treatment
Protocol: Apple—Apple trees were treated with: 8 mM phenylalanine 1 week or 2 weeks before harvest; or with 0.2 prohydrojasmon (also known as ‘blush’). Fruits were harvested from the external area of the tree. After harvest, fruits were stored for 3 months at 0° C., wherein sensory analysis by a panel of 20 tasters was performed, for both slices fruit and for juice extracted therefrom. Brix values were also determined.

Mango (Tali) fruits = experiment: Aroma-associated VOC levels in dipped mango fruits; settings: pulp; dipped in 8 mM; 11 days at 22° C.; vs non-treated
Protocol: FIGS. 30A-30G include vertical bar graphs showing that a […] treatment of mango fruits with 8 mM phenylalanine increases the levels of aroma-associated VOCs. Mango (Tali) fruits were dipped in 8 mM phenylalanine and after 11 days of storage at 22° C. the profile of volatiles in the fruit […] was examined. Concentration of the following volatile aroma substances was examined (presented as μg/gFW): (30A) α-Pinene; (30B) 3-Carene; (30C) D-Limonene; (30D) Gurjunene; (30E) α-Terpinolene; (30F) α-Phellandrene; and (30G) Caryophyllene. Further, the inventors have shown that postharvest treatment as disclosed herein improves fruit aroma. The investors have dipped Mango fruits, and 11 days after storage at 22° C., the levels of aroma-associated VOCs were determined. Indeed, postharvest treatment with an effective amount of phenylalanine induced a significant increase in the levels of all tested VOCs (FIG. 30).

[5] = test system: Red (Memphis) and white (Sifra) potato tubers; experiment: Scratch curing in potato tuber; settings: for scratch curing (scale of 0-3): 8 mM dip 1 min
Protocol: Red (Memphis) and white (Sifra) potato tubers were dipped in water or 8 mM Phe for 1 min, and dried. The tubers were stored at 20° C. for 2 days. Each tuber was scratched (2 cm length, and 1 cm wide) in 3 spots. One week and 2 weeks later the curing of the scratch was evaluated on a scale of 0-3, the recovery of the red color was evaluated on a scale of 0-3, and the weight loss was measured.

mango fruits [6] = experiment: Red coloration of mango fruits after preharvest treatment; settings: Shelly and Kent; 8 mM, 1 or 2 weeks preharvest
Protocol: (§2) Mango or apple trees were treated 1 week or 2 weeks pre-harvest with either 8 mM of phenylalanine or with 0.2% prohydrojasmon ('blush'). Fruits were harvested from the external area of the tree, wherein fruits are exposed to the sunlight (photon flux of 1,500±200 μmol·m^-2 sec^-1). After harvest: (a) mango fruits were stored for 3 weeks at 12° C., and for another week at 22° C. (e.g., shelf life); and (b) apple fruits were stored for 3 months at 0° C., and for another week at 22° C. (e.g., shelf life). Surface area of the red color was evaluated as percentage, and red intensity was evaluated on a scale of 0-5. Each mango fruit was assessed for percentage of red surface area on fruit for each treatment at different time points (harvest, after cold storage at 12° C. and after shelf life at 22° C.). Similarly, red intensity was evaluated for each mango fruit using a visual rating scale, where 0=no red color, 1=faint red color, and 5=very intense red color. Fifty fruit were evaluated per treatment. The skin color (hue) of 15 mango fruit was measured for each treatment using a CR-400/410 Chromometer (Konicka Minolta, Osaka, Japan) on the equatorial line of each fruit at the […] point. […] Chlorophyll, anthocyanin, and flavonoid content were measured by the Multiplex III fluorescence detector (Force A, Orsay, France), which consists of 12 fluorescence signals. […]

Mango (Shelly) fruits = experiment: Preharvest spray, red coloration and TSS in mango
Description: FIGS. 26A-26C include vertical bar graphs showing the effect of preharvest spray treatment on red coloration and TSS in Mango (Shelly) fruits. Red color surface (%; 26A), red color intensity (26B) and TSS (% Brix; 26C) were examined under preharvest treatments with 0.01%, 0.06%, […], or 0.24% phenylalanine (Phe).
(§3) Further, improvement of fruit coloration was also shown in grapes (FIG. 28).

[7] = test system: Apple (Starking Delicious) fruits; experiment: Preharvest spray, red coloration and TSS in apple
Protocol: FIGS. 27A-27D include vertical bar graphs showing the effect of preharvest spray treatment on red coloration and TSS in Apple (Starking Delicious) fruits. […] In 27D, TSS was evaluated at time 0 (TO), after cold storage (CS), and after time at shelf conditions (e.g., shelf-life (SL)).
as §3

[8] = test system: Muscat grapes and Petit Verdot grapes; experiment: Sensory analysis and Brix of grapes and juice after preharvest treatment; settings: for Brix values of grapes and/or juice: 8 mM preharvest, vs control
Protocol: Grapes—Muscat grapes and Petit Verdot grapes were treated with 8 mM phenylalanine for: (i) 1 week or 2 weeks; and (ii) 1 week, 2 weeks, or 3 weeks, before harvest, and their combination, respectively. Sensory analysis by a panel of 20 tasters was performed, for the juice extracted from the fruits, and Brix, and % acidity (calibrated according to citric acid) values were also determined. In the case of muscat grapes, intact fruits were also analyzed (e.g., by the panel, Brix, and % acidity).

[9] = test system: Mango fruits (Tali and Shelly); experiment: ROS accumulation in injured mango fruits; settings: postharvest 8 mM; injured fruit; vs non-treated injured fruit
Protocol: FIGS. 31A-31C include a fluorescent micrograph (31A) and vertical bar graphs showing that postharvest treatment of Mango fruits (Tali and Shelly) with 8 mM phenylalanine reduces accumulation of reactive oxygen species (ROS) in the peel (31B) and pulp (31C) of treated injured fruits compared to control injured fruit (non-treated). […] (31A) Visualization conducted 20 minutes post induced injury. (31B-31C) ROS quantification 7 days post induced injury.
Further, the inventors have shown that postharvest treatment as disclosed herein reduces ROS (reactive oxygen species) accumulation in fruit injured postharvest (FIG. 31).

Starking and Anna apples = experiment: Enzymatic browning of sliced apple fruits after preharvest treatment; settings: 0.12%
Description: FIGS. 29A-29E include micrographs showing the effect of preharvest treatment on decay parameters in Starking (29A-29B) and Anna (29C-29E) apples. In control fruits, enzymatic browning (i.e., oxidation) was highly evident (29A, and 29C).
Further, the inventors have examined the effect of preharvest treatment with phenylalanine on enzymatic browning, i.e., oxidation, in a fruit.

[10] = test system: Red (Memphis) and white (Sifra) potato tubers; experiment: Cut curing in potato tuber; settings: 8 mM dip; for weight loss after cutting: statistically significant 14 days post-treatment
Protocol: Red (Memphis) and white (Sifra) potato tubers were dipped in water or 8 mM Phe for 1 min, and dried. The tubers were stored at 20° C. for 2 days. Each tuber was cut (2 cm length, 2 cm deep, 2 mm wide) in 3 spots. One week and 2 weeks later the curing of the cut was evaluated on a scale of 0-3, and the weight loss was measured.
Red (Memphis) and white (Sifra) potato tubers were dipped in water or 8 mM Phe for 1 min, and dried. The tubers were stored at 20° C. for 2 days. Each tuber was cut (2 cm length, 2 cm deep, 2 mm wide). Two weeks later the superficial and internal curing were documented.

grapes (Skarlota) = experiment: Preharvest spray, red coloration in grapes
Description: FIG. 28 includes a vertical bar graph showing the effect of preharvest spray treatment on red coloration (represented as index 0-5) in grapes (Skarlota). […] Further, improvement of fruit coloration was also shown in grapes (FIG. 28).

apple fruits (Jonathan) [11] = experiment: Red coloration of apple fruits after preharvest treatment; settings: 8 mM, 1 or 2 weeks preharvest
Protocol: as §2

[12] = preharvest, 0.06% by weight (~3 mM) or more
[13] = 0.12% (~6 mM) preharvest spray, compared to 0.01%
[14] = white Muscat grapes, preharvest application, 2020

## N[C@@H](Cc1ccccc1)C(=O)O [phenylalanine]
Mango fruits [1]; juice of treated mango fruits vs control (FIGS. 8, 13)
  Brix values in juice extracted from mango fruits: greater than the control
Mango fruits [1]; treated mango fruits vs control (FIGS. 1-3, 7, 12)
  Brix values in mango fruits: greater than the control
[2]
  lignin production (fluorescent intensity): increased lignin production
Mango fruits [3]; Kent
  quality of juice extracted from mango fruits: quality improvement
Mango fruits [3]; Shelly
  quality of juice extracted from mango fruits: quality improvement
Mango fruits [3]; tasters' panel, postharvest dip 4-8 mM (FIGS. 1-3) or preharvest application (FIGS. 7, 12), vs control
  sensory quality of mango fruits (sweeter, less acidic, better aroma, firmness, general appreciation): better quality
Apple fruits (Jonathan) [4]; 8 mM preharvest, vs control
  Brix values in apple fruits: greater than the control
Apple fruits (Jonathan) [4]; tasters' panel, 8 mM 1 or 2 weeks preharvest, after 3 months at 0° C.
  sensory quality of apple fruits and/or juice (sweeter, less acidic, better aroma): better quality
Apple fruits (Jonathan) [4]; tasters' panel, 8 mM preharvest
  texture of apple fruits: better texture
Mango (Tali) fruits
  level of 3-Carene: significantly elevated
  level of Caryophyllene: significantly elevated
  level of D-Limonene: significantly elevated
  level of Gurjunene: significantly elevated
  level of α-Phellandrene: significantly elevated
  level of α-Pinene: significantly elevated
  level of α-Terpinolene: significantly elevated
[5]; Memphis (red), 8 mM dip
  weight loss after scratching: reduced
[5]; Memphis (red), 7 and 14 days post-treatment
  scratch curing (scale of 0-3): significantly improved
[5]; Memphis (red), 8 mM dip, 7 and 14 days post-treatment
  color curing, recovery of the red color (scale of 0-3): significantly improved
[5]; Sifra (white), 7 and 14 days post-treatment
  scratch curing (scale of 0-3): significantly improved
[5]; Sifra (white), 8 mM dip, statistically significant
  weight loss after scratching: reduced
Mango fruits [6]
  formation of red coloration in mango fruits: effectively induce the formation of red coloration
Mango (Shelly) fruits; 0.01% (~0.5 mM) preharvest spray
  red coloration (red color surface %, red color intensity): ineffective
Mango (Shelly) fruits; 0.01% preharvest spray
  TSS (% Brix): no contribution
Mango (Shelly) fruits; [12]
  TSS: substantially improved
  fruit coloration: substantially improved
[7]; 0.01% preharvest spray
  TSS (% Brix): comparable to negative control
  red coloration (red color surface %, red color intensity): comparable to negative control
[7]; [13]
  TSS (% Brix): substantially more effective
  red coloration (red color surface %, red color intensity): substantially more effective
[8]; Muscat grapes
  Brix values of grapes and/or juice: increased Brix values
[8]; Petit Verdot grapes
  Brix values of grapes and/or juice: increased Brix values
[8]; Petit Verdot grapes, preharvest application, 2020
  quality of juice extracted from grapes: quality improvement
[8]; [14]
  flavor of grapes: flavor improvement
  quality of juice extracted from grapes: quality improvement
[9]
  ROS accumulation in the peel: substantially less ROS
  ROS accumulation in the pulp: substantially less ROS
Starking and Anna apples; Anna apples, 2 weeks or 4 weeks preharvest
  enzymatic browning (oxidation): effective in reducing enzymatic browning
Starking and Anna apples; Starking apples, 2 weeks preharvest
  enzymatic browning (oxidation): effective in reducing enzymatic browning
[10]; Memphis, 14 days
  cut curing (scale of 0-3): to a less extent
[10]; Memphis
  weight loss after cutting: reduced
[10]; Memphis, two weeks later
  internal curing of the cut: improved compared to control
[10]; Sifra, 7 and 14 days post-treatment, vs control
  cut curing (scale of 0-3): improved significantly
[10]; Sifra
  weight loss after cutting: reduced
[10]; Sifra, two weeks later
  superficial and internal curing of the cut: improved compared to control
Grapes (Skarlota); 0.01% (~0.5 mM) preharvest
  red coloration: ineffective
Grapes (Skarlota); [13]
  red color index (0-5): substantially more effective
Apple fruits (Jonathan) [11]
  formation of red coloration in apple fruits: effectively induce the formation of red coloration

From patent publication US20240057599A1, “METHODS FOR IMPROVING FRUIT QUALITY” (The State of Israel, Ministry of Agriculture & Rural …, priority 2021, published 2024)
